System: HepaRG cells
Assay: RT-PCR mRNA levels of hepatic genes in HepaRG monolayer cultures
Format: cell-based, human
Details: CG treatment
Experimental: The HepaRG cells cultured in the 6-well plates are lysed and the RNA is isolated using the RNeasy kit (Qiagen). Next, real-time reverse transcriptase-polymerase chain reactions (RT-PCR) are performed to quantify mRNA levels of hepatic genes as well as 18S ribosomal RNA levels by RT-PCR.
First-strand cDNA is generated using a combination of 40 pmol of gene-specific RT-primers (see Table 1) and 134 units of Superscript III (Invitrogen) and 1 μg RNA in a total volume of 25 μl at 50° C. for one hour followed by a 15 min incubation at 70° C. The resulting gene-specific RT reaction mixtures are column purified using Qiaquick PCR Purification Kit (Qiagen).
Real-time PCR is performed using 1 μl of cDNA and LightCycler FastStart DNA Master SYBR® Green 1 reagent (Roche). PCR primers are depicted in the Table 3. The thermal cycling profile of the touchdown PCR is as follows: 94° C. for 10 min, followed by 40 cycles of 94° C. for 1 s, primer annealing at 68° C. for 7 s with a 0.5° C./cycle decrease until 63° C., and extension for 40 s at 72° C. PCR specificity is verified by melting curve analysis and agarose gel electrophoresis. The mRNA quantification is carried out by using the LinRegPCR programme (Ramakers et al.^17). For each sample the mRNA starting level is normalised for the 18S rRNA starting level. To correct for variations between RT-PCR runs, the mRNA starting levels of liver specific genes of NKNT-3 cells are additionally standardized for average mRNA starting levels of two liver samples that are simultaneously subjected to RT-PCR.

NC(=O)N[C@@H](CCC(=O)O)C(=O)O [CG, carbamoyl glutamate]
effect on other hepatic functions and the gene expression profiles: No effect

From patent US8921108B2, “Differentiated human liver cell cultures and their use in bioartificial liver systems” (Academisch Ziekenhuis Bij de Universiteit van Amsterdam, priority 2009, dated 2014)
